Drawing on article PMC2248166, “Quantitative peptide binding motifs for 19 human and mouse MHC class I molecules derived using positional scanning combinatorial peptide libraries” (Immunome Research, 2008), this text covers IC50 for 29 molecules.

Where a SMILES comes first, the peptide text is derived from it.

For this test, the target named is HLA A*3001 (Homo sapiens, UniProt P04439, D140H/D185E/E176W/F33S/G80R/H175R/K168Q/R138E/R41S). Nature of the test: biochemical. The class given is binding.
Sequence of HLA A*3001 (P04439 25-365 limits assumed, stated change not applied): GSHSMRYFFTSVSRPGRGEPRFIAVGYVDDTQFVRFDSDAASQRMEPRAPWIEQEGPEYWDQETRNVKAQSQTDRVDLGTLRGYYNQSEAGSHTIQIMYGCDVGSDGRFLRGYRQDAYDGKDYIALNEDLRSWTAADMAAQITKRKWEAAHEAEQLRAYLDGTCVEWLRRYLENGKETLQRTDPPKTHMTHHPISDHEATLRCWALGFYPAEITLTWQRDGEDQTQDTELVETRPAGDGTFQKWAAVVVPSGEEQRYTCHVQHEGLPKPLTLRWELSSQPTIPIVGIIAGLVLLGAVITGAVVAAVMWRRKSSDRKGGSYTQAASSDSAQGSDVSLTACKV

Molecule `CC[C@H](C)[C@H](NC(=O)[C@H](CC(=O)O)NC(=O)[C@H](CC(C)C)NC(=O)[C@H](Cc1ccccc1)NC(=O)[C@@H](N)CC(C)C)C(=O)N[C@@H](CCC(=O)O)C(=O)N[C@@H](CS)C(=O)N[C@@H](Cc1c[nH]cn1)C(=O)N[C@@H](Cc1ccccc1)C(=O)O` [3102.0932] (H-LFLDIECHF-OH) registered an IC50 of 19 nM. The result for `CC[C@H](C)[C@H](NC(=O)[C@@H]1CCCN1C(=O)[C@H](CC(C)C)NC(=O)[C@H](CCCNC(=N)N)NC(=O)[C@@H](NC(=O)[C@@H](N)CCSC)[C@@H](C)O)C(=O)N[C@@H](CC(C)C)C(=O)N[C@@H](CC(C)C)C(=O)N[C@@H](CC(C)C)C(=O)O` [3102.0104] (H-MTRLPILLL-OH) reads 0.65 nM; that for `CC(C)C[C@H](NC(=O)[C@H](Cc1c[nH]cn1)NC(=O)[C@H](CC(N)=O)NC(=O)[C@H](CC(N)=O)NC(=O)[C@H](CCCNC(=N)N)NC(=O)[C@H](CO)NC(=O)[C@@H](N)[C@@H](C)O)C(=O)N1CCC[C@H]1C(=O)N[C@@H](C)C(=O)O` [3102.0126] (H-TSRNNHLPA-OH), 15 nM; that for `C[C@H](NC(=O)[C@H](C)NC(=O)[C@H](CC(N)=O)NC(=O)[C@H](CCC(N)=O)NC(=O)[C@@H]1CCCN1C(=O)[C@H](CC(=O)O)NC(=O)[C@H](CCCNC(=N)N)NC(=O)[C@@H](NC(=O)[C@@H](N)Cc1c[nH]cn1)[C@@H](C)O)C(=O)O` [3102.0224] (H-HTRDPQNAA-OH), 0.91 nM. The figure for `CC[C@H](C)[C@H](NC(=O)[C@@H](NC(=O)[C@H](CCCCN)NC(=O)[C@H](CO)NC(=O)[C@H](C)N)[C@@H](C)O)C(=O)N[C@@H](CC(N)=O)C(=O)N[C@@H](C)C(=O)N[C@@H](CC(C)C)C(=O)N[C@H](C(=O)O)C(C)C` [3102.0095] (H-ASKTINALV-OH) is 0.18 nM. With `CC[C@H](C)[C@H](NC(=O)[C@H](CCCCN)NC(=O)[C@H](CO)NC(=O)[C@H](CCCCN)NC(=O)[C@@H](NC(=O)[C@@H](N)CCCNC(=N)N)[C@@H](C)O)C(=O)N[C@@H](CC(C)C)C(=O)N[C@@H](Cc1ccccc1)C(=O)NCC(=O)O` [3102.1348] (H-RTKSKILFG-OH), the IC50 amounted to 10 nM. The result for `CC[C@H](C)[C@H](NC(=O)[C@H](C)N)C(=O)N[C@@H](CCCNC(=N)N)C(=O)N[C@@H](C)C(=O)NCC(=O)N[C@@H](Cc1ccc(O)cc1)C(=O)N[C@@H](CO)C(=O)N[C@H](C(=O)N[C@H](C(=O)O)C(C)C)[C@@H](C)CC` [3102.0160] (H-AIRAGYSIV-OH) reads 1.4 nM; that for `CC[C@H](C)[C@H](NC(=O)[C@@H](NC(=O)[C@@H](NC(=O)[C@H](CCCCN)NC(=O)[C@H](C)NC(=O)[C@@H](N)CCCCN)[C@@H](C)O)[C@@H](C)O)C(=O)N[C@@H](CO)C(=O)N[C@@H](CC(N)=O)C(=O)N[C@@H](Cc1ccc(O)cc1)C(=O)O` [3102.0241] (H-KAKTTISNY-OH), 24 nM; that for `CC(C)C[C@H](NC(=O)[C@H](CO)NC(=O)[C@H](CCCCN)NC(=O)[C@H](CO)NC(=O)[C@H](C)N)C(=O)N[C@@H](CCCCN)C(=O)N1CCC[C@H]1C(=O)N[C@H](C(=O)N[C@@H](CCCCN)C(=O)O)[C@@H](C)O` [3102.1346] (H-ASKSLKPTK-OH), 15 nM.

The molecule `CC(C)C[C@H](NC(=O)[C@@H](N)CCCNC(=N)N)C(=O)N[C@@H](CCCCN)C(=O)N[C@@H](CO)C(=O)N[C@@H](C)C(=O)N[C@H](C(=O)N[C@@H](CS)C(=O)N[C@@H](Cc1ccc(O)cc1)C(=O)N[C@@H](CCCCN)C(=O)O)C(C)C` [3102.0220] (H-RLKSAVCYK-OH) yielded a concentration for half-maximal inhibition (IC50) of 0.18 nM. The result for `CSCC[C@H](N)C(=O)N[C@@H](CCC(N)=O)C(=O)N[C@@H](CCCCN)C(=O)N[C@@H](CS)C(=O)N[C@@H](Cc1ccc(O)cc1)C(=O)N[C@@H](Cc1ccccc1)C(=O)N[C@@H](CO)C(=O)N[C@@H](Cc1ccc(O)cc1)C(=O)N[C@@H](CCCCN)C(=O)O` [3102.0090] (H-MQKCYFSYK-OH) reads 0.53 nM; that for `CC[C@H](C)[C@H](NC(=O)[C@H](C)NC(=O)[C@H](Cc1ccc(O)cc1)NC(=O)[C@H](CCCCN)NC(=O)[C@H](CCCCN)NC(=O)[C@H](CCCCN)NC(=O)[C@@H](NC(=O)[C@@H](N)CCCCN)C(C)C)C(=O)NCC(=O)O` [3102.0280] (H-KVKKKYAIG-OH), 1.6 nM.

`CC[C@H](C)[C@H](NC(=O)[C@H](CC(N)=O)NC(=O)[C@H](CO)NC(=O)[C@H](CCSC)NC(=O)[C@H](CC(C)C)NC(=O)[C@H](CCCCN)NC(=O)[C@@H](NC(=O)[C@@H](N)CCCNC(=N)N)[C@@H](C)O)C(=O)N[C@@H](CCCCN)C(=O)O` [3102.0253] (H-RTKLMSNIK-OH): the IC50 came out at 0.38 nM. The result for `CC[C@H](C)[C@H](NC(=O)[C@@H](N)CO)C(=O)N[C@@H](CCCCN)C(=O)N[C@@H](CCCNC(=N)N)C(=O)N[C@@H](CO)C(=O)N[C@@H](CC(N)=O)C(=O)N[C@H](C(=O)N[C@@H](Cc1ccccc1)C(=O)N[C@@H](C)C(=O)O)C(C)C` [3102.0214] (H-SIKRSNVFA-OH) reads 3.6 nM; that for `CC(C)C[C@H](NC(=O)[C@H](CO)NC(=O)[C@H](CC(C)C)NC(=O)[C@H](CS)NC(=O)[C@H](CCCNC(=N)N)NC(=O)[C@H](CO)NC(=O)[C@@H](N)CS)C(=O)N[C@@H](Cc1ccccc1)C(=O)N[C@@H](Cc1ccc(O)cc1)C(=O)O` [3102.0178] (H-CSRCLSLFY-OH), 22 nM; that for `CC[C@H](C)[C@H](NC(=O)[C@H](Cc1ccc(O)cc1)NC(=O)[C@H](CO)NC(=O)[C@H](CC(C)C)NC(=O)[C@H](Cc1ccccc1)NC(=O)[C@H](Cc1c[nH]cn1)NC(=O)[C@H](CCCNC(=N)N)NC(=O)[C@@H](NC(=O)[C@@H](N)CCCNC(=N)N)[C@@H](C)O)C(=O)O` [3102.0111] (H-RTRHFLSYI-OH), 0.24 nM. The result for `CC[C@H](C)[C@H](NC(=O)[C@H](Cc1ccccc1)NC(=O)[C@H](CCCCN)NC(=O)CNC(=O)[C@H](CCC(N)=O)NC(=O)[C@H](CCCNC(=N)N)NC(=O)[C@@H](NC(=O)[C@@H](N)CCCNC(=N)N)[C@@H](C)CC)C(=O)N[C@@H](CCCCN)C(=O)O` [3102.0028] (H-RIRQGKFIK-OH) reads 4.8 nM.

Regarding `CC[C@H](C)[C@H](NC(=O)[C@@H](NC(=O)[C@H](CO)NC(=O)[C@H](CCCNC(=N)N)NC(=O)[C@H](CC(C)C)NC(=O)[C@H](CO)NC(=O)[C@@H](N)CCSC)[C@@H](C)O)C(=O)N[C@H](C(=O)N[C@@H](CCCCN)C(=O)O)[C@@H](C)CC` [3102.0180] (H-MSLRSTIIK-OH), the IC50 is 37 nM.

With `CC(C)C[C@H](NC(=O)[C@H](CC(N)=O)NC(=O)[C@H](CC(C)C)NC(=O)[C@H](Cc1c[nH]c2ccccc12)NC(=O)[C@H](CO)NC(=O)[C@H](CC(N)=O)NC(=O)[C@H](CCCCN)NC(=O)[C@H](C)NC(=O)[C@@H](N)CO)C(=O)O` [3102.0164] (H-SAKNSWLNL-OH), the IC50 stood at 0.57 nM. The figure for `CC(C)C[C@H](NC(=O)[C@H](Cc1ccccc1)NC(=O)[C@@H](NC(=O)CNC(=O)[C@H](Cc1ccc(O)cc1)NC(=O)[C@H](CCCNC(=N)N)NC(=O)[C@H](Cc1ccc(O)cc1)NC(=O)[C@@H](N)CCCCN)[C@@H](C)O)C(=O)N[C@@H](Cc1ccc(O)cc1)C(=O)O` [3102.0156] (H-KYRYGTFLY-OH) is 1.1 nM; for `C[C@@H](O)[C@H](N)C(=O)N[C@@H](Cc1ccccc1)C(=O)N[C@@H](CCCNC(=N)N)C(=O)N[C@@H](CCC(=O)O)C(=O)N[C@@H](CCCNC(=N)N)C(=O)N[C@@H](Cc1ccc(O)cc1)C(=O)N[C@@H](CO)C(=O)N[C@@H](Cc1ccc(O)cc1)C(=O)N[C@@H](CCCCN)C(=O)O` [3102.0221] (H-TFRERYSYK-OH) it is 0.89 nM. With `C[C@H](NC(=O)[C@H](C)NC(=O)[C@H](CCCCN)NC(=O)CNC(=O)[C@@H](N)CCCCN)C(=O)N[C@@H](C)C(=O)N[C@@H](Cc1ccccc1)C(=O)N[C@@H](C)C(=O)N[C@@H](CCCCN)C(=O)O` [3102.0176] (H-KGKAAAFAK-OH), the IC50 worked out at 3.1 nM.

For the molecule `CSCC[C@H](N)C(=O)N[C@H](C(=O)N[C@@H](CCCNC(=N)N)C(=O)N[C@@H](CC(C)C)C(=O)N1CCC[C@H]1C(=O)N[C@@H](Cc1ccc(O)cc1)C(=O)N[C@@H](CCCCN)C(=O)N[C@@H](CC(=O)O)C(=O)N[C@@H](C)C(=O)O)C(C)C` [3102.0149] (H-MVRLPYKDA-OH), the IC50 was found to be 0.76 nM.

`CC[C@H](C)[C@H](NC(=O)[C@H](CCCCN)NC(=O)[C@@H](NC(=O)[C@@H](N)Cc1c[nH]cn1)[C@@H](C)O)C(=O)N[C@@H](CC(=O)O)C(=O)N[C@@H](CO)C(=O)N[C@@H](CCSC)C(=O)N[C@@H](Cc1ccccc1)C(=O)N[C@@H](CC(C)C)C(=O)O` [3102.0016] (H-HTKIDSMFL-OH): the IC50 was determined as 1.5 nM. The result for `CC(C)C[C@H](NC(=O)[C@H](CCCNC(=N)N)NC(=O)[C@H](Cc1ccc(O)cc1)NC(=O)[C@H](CCC(=O)O)NC(=O)[C@H](CCC(N)=O)NC(=O)[C@H](Cc1ccccc1)NC(=O)[C@@H](NC(=O)[C@@H](N)Cc1c[nH]cn1)C(C)C)C(=O)N[C@@H](CCCCN)C(=O)O` [3102.0284] (H-HVFQEYRLK-OH) reads 27 nM.

Turning to `CSCC[C@H](NC(=O)[C@H](Cc1c[nH]cn1)NC(=O)[C@H](CC(N)=O)NC(=O)[C@H](CCCNC(=N)N)NC(=O)[C@H](Cc1ccccc1)NC(=O)[C@@H](N)CCCNC(=N)N)C(=O)N[C@@H](CS)C(=O)N[C@@H](CC(C)C)C(=O)N[C@H](C(=O)O)C(C)C` [3102.0134] (H-RFRNHMCLV-OH), the IC50 came out at 31 nM. The figure for `CC[C@H](C)[C@H](NC(=O)[C@H](C)NC(=O)[C@@H](NC(=O)[C@@H](NC(=O)[C@H](C)NC(=O)[C@H](Cc1ccccc1)NC(=O)[C@@H](NC(=O)[C@@H](N)CCCCN)[C@@H](C)O)[C@@H](C)CC)[C@@H](C)CC)C(=O)N[C@H](C(=O)O)C(C)C` [3102.0202] (H-KTFAIIAIV-OH) is 24 nM; for `CC[C@H](C)[C@H](NC(=O)[C@H](CO)NC(=O)[C@@H](NC(=O)[C@H](CCC(N)=O)NC(=O)[C@H](CCCCN)NC(=O)[C@@H](NC(=O)[C@@H](N)CCCNC(=N)N)C(C)C)[C@@H](C)CC)C(=O)N[C@@H](CO)C(=O)N[C@H](C(=O)O)[C@@H](C)O` [3102.0166] (H-RVKQISIST-OH) it is 0.37 nM.

As to `CC[C@H](C)[C@H](NC(=O)[C@H](CCCNC(=N)N)NC(=O)[C@@H](NC(=O)[C@@H](N)CCCCN)[C@@H](C)O)C(=O)N[C@@H](CCCNC(=N)N)C(=O)N[C@@H](CC(N)=O)C(=O)N[C@@H](CC(C)C)C(=O)N[C@@H](CCCCN)C(=O)N[C@@H](CCCNC(=N)N)C(=O)O` [3102.0236] (H-KTRIRNLKR-OH), the IC50 turned out to be 6.5 nM.
